Experimental data: patent publication US20060235222A1, “Indole-derivative modulators of steroid hormone nuclear receptors” (ELI LILLY AND COMPANY, priority 2003, published 2006)

Assays:
human MR = molecular target: T1, human MR (Homo sapiens, UniProt P08235); test: Mineralocorticoid Receptor Binding Assay (Method 1), [3H]-aldosterone competition; details: 0.5 nM [3H]-aldosterone, human MR expressed in Sf9 cells
T1 construct: The full length human MR gene is cloned from a human kidney or human brain cDNA library; inferred from own knowledge of the pAcHLT vector (N); made in house; host or cells: Sf9 insect cells (baculovirus)
T1 sequence (P08235 1-984): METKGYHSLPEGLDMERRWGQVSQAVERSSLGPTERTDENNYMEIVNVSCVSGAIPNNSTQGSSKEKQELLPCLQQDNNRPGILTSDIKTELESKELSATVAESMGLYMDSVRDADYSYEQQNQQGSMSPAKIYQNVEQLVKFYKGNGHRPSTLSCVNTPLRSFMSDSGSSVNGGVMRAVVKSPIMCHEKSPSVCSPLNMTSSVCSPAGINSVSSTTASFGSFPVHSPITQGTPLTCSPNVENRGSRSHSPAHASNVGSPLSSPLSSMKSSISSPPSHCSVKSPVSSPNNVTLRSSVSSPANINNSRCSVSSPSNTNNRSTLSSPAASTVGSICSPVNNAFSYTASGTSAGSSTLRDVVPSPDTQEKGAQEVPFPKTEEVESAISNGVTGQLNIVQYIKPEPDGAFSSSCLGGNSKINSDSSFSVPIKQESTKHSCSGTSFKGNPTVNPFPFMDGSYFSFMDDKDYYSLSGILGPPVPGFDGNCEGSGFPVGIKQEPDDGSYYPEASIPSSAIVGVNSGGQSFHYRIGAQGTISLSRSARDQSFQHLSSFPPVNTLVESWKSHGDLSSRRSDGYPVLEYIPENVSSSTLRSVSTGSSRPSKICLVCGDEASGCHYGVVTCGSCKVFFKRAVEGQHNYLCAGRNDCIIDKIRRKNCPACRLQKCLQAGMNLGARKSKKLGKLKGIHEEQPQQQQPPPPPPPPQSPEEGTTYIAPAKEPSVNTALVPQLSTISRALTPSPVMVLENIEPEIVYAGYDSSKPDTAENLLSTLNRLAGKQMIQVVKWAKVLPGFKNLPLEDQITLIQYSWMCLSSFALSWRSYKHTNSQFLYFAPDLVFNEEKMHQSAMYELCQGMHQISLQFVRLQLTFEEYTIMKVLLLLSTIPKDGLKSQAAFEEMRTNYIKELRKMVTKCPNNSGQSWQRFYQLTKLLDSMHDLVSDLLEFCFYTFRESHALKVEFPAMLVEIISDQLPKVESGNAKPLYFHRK
Summary of the method: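 Full-length human MR expressed in Sf9 cells via baculovirus; lysate supernatant (about 20-25 μg protein) incubated with 0.5 nM [3H]-aldosterone and test compound for about 16 h at 4° C. Buffer was Tris/molybdate/phosphate/pyrophosphate with 10% glycerol, pH 7.5; filter-bound complex counted by scintillation.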

[1] = molecular target: T2, human GR (glucocorticoid receptor) (Homo sapiens, UniProt P04150); test: Alternative Binding Assay Protocol (Method 2), 293-GR lysate, 3H-dexamethasone competition; details: 0.3 nM 3H-dexamethasone
T2 construct: expressed in transfected cells; host or cells: 293 cells
T2 sequence (P04150 1-777): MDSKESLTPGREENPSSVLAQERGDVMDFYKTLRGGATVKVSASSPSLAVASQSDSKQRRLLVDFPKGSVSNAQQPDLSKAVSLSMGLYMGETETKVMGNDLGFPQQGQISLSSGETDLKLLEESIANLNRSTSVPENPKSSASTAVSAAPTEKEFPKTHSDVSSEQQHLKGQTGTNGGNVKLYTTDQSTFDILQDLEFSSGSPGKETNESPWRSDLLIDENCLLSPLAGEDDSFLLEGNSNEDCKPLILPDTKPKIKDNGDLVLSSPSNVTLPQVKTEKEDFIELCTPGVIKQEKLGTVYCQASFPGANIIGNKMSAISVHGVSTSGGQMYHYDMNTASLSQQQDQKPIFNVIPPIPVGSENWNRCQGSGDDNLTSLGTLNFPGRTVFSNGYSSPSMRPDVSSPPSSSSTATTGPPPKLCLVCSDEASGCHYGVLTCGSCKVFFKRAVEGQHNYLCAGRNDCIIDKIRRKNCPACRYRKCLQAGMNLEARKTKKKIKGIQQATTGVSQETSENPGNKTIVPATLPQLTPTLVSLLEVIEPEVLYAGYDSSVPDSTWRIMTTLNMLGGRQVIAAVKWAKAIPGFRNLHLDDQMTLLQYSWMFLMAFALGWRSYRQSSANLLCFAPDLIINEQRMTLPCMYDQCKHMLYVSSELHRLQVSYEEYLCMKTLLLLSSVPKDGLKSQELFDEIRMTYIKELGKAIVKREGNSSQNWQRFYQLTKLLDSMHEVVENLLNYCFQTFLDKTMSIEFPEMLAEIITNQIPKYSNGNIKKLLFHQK
Procedure: Alternative Binding Assay Protocol for MR, GR, AR, and PR (Method 2):
Cell lysates from 293 cells overexpressing human GR (glucocorticoid receptor), AR (androgen receptor), MR (mineralocorticoid receptor) or PR (progesterone-receptor) are used for competition binding assays to determine Ki values for test compounds. […] Competing compounds are added at various concentraions in half-log increments. Non-specific binding is determined in the presence of 500 nM dexamethasone for GR binding, 500 nM aldosterone for MR binding, or 500 nM methyltrienolone for AR and PR binding. The binding reaction (140 μl) is incubated for overnight at 4° C., then 70 μl of cold charcoal-dextran buffer (containing per 50 ml of assay buffer, 0.75 g of charcoal and 0.25 g of dextran) is added to each reaction. Plates are mixed 8 minutes on an orbital shaker at 4° C. Plates are then centrifuged at 3,000 rpm at 4° C. for 10 minutes. An aliquot of 120 μl of the mix is transferred to another 96-well plate and 175 μl of Wallac Optiphase “Hisafe 3” scintillation fluid is added to each well. Plates are sealed and shaken vigorously on an orbital shaker. After an incubation of 2 hrs, plates are read in a Wallac Microbeta counter. […] The Kd for ^3H-dexamethasone for GR binding, ^3H-methyltrienolone for AR binding, ^3H-aldosterone for MR binding, or ^3H-methyltrienolone for PR binding, is determined by saturation binding. The IC50 values for compounds are converted to Ki using Cheng-Prusoff equation and the Kd determined by saturation binding assay.

| Compound | Ki (human MR) [nM] | Ki [1] [nM] |
| --- | --- | --- |
| C[C@](c1ccc(Cl)cc1)(c1c[nH]c2c(NS(C)(=O)=O)cccc12)C1CC1 [Example 164] | < 500 | < 500 |
| CCC(c1ccc(F)cc1)(c1c[nH]c2c(NS(C)(=O)=O)cccc12)C1CC1 (stereo not drawn) [Example 165] | < 500 | < 500 |
| C[C@@](c1ccc(Cl)cc1)(c1c[nH]c2c(NS(C)(=O)=O)cccc12)C1CC1 [Example 174] | < 500 | < 500 |
| C[C@](c1ccccc1F)(c1c[nH]c2c(NS(C)(=O)=O)cccc12)C1CC1 [Example 172] | < 500 | < 500 |
| CC(c1ccccc1F)(c1c[nH]c2c(NS(C)(=O)=O)cccc12)C1CC1 (stereo not drawn) [Example 168] | < 500 | < 500 |
| CCc1ccc(C(CC)(CC)c2c[nH]c3c(NS(C)(=O)=O)cccc23)cc1 [Example 171] |  | < 500 |
| CCCCC(c1ccc(F)cc1)(c1c[nH]c2c(NS(C)(=O)=O)cccc12)C1CC1 (stereo not drawn) [Example 185] | < 500 | < 500 |
| CC(c1ccc2c(c1)OCO2)(c1c[nH]c2c(NS(C)(=O)=O)cccc12)C1CC1 (stereo not drawn) [Example 175] | < 500 | < 500 |
| COc1ccc(C(C)(c2c[nH]c3c(NS(C)(=O)=O)cccc23)C2CC2)cc1 (stereo not drawn) [Example 170] | < 500 | < 500 |
| Cc1ccc(C(C)(c2c[nH]c3c(NS(C)(=O)=O)cccc23)C2CC2)cc1 (stereo not drawn) [Example 169] | < 500 | < 500 |
| C[C@@](c1ccccc1F)(c1c[nH]c2c(NS(C)(=O)=O)cccc12)C1CC1 [Example 180] | < 500 | < 500 |
| CCC(CC)(c1ccc2c(ccn2C(C)=O)c1)c1c[nH]c2c(NS(C)(=O)=O)cccc12 [Example 195] | < 500 | < 1000 |
| CCC(CC)(c1ccc2nc(C)oc2c1)c1c[nH]c2c(NS(C)(=O)=O)cccc12 [Example 193] | < 500 | < 500 |
| CC(C)CC(C)(c1ccccc1)c1c[nH]c2c(NS(C)(=O)=O)cccc12 (stereo not drawn) [Example 187] | < 500 | < 500 |
| C[C@@](c1ccc(F)cc1)(c1c[nH]c2c(NS(C)(=O)=O)cccc12)C1CC1 [Example 186] | < 500 | < 500 |
| CC(c1ccc(Cl)cc1)(c1c[nH]c2c(NS(C)(=O)=O)cccc12)C1CC1 (stereo not drawn) [Example 167] | < 500 | < 500 |
| CCC(CC)(c1ccc2nc(NC(C)=O)sc2c1)c1c[nH]c2c(NS(C)(=O)=O)cccc12 [Example 199] | < 1000 | < 500 |
